In US20240002391A1, “4-ALKOXYPYRROLO[2,1-F][1,2,4]TRIAZINES AND PREPARATION AND USES THEREOF” (BioSplice Therapeutics, Inc., priority 2022, published 2024):

What follows are compounds tested against recombinant DYRK1A kinase (Homo sapiens (Human), UniProt Q13627) (assay: DYRK1A kinase assay (Ser/Thr 18 peptide Z-lyte FRET)). Conditions: DYRK1A kinase activity, Z-lyte Ser/Thr 18 peptide, 15 μM ATP; method text calls the value IC50; read-out: EC50 (the source's name).
Type: biochemical
Outline: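 Kinase 0.25 μg/mL + ATP 15 μM + Ser/Thr 18 peptide 4 μM, 1 h RT with cpd (10 μM top, 1:3, 11 pts, n=2). Dev. reagent A 1 h RT. Ex 400, Em 455/520 ratio → % phos. → IC50, nonlinear fit.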

Row | SMILES | IC50
1 | COc1nc(N[C@H]2CC[C@@](C)(O)CC2)nn2ccc(-c3ccc4nccn4c3)c12 [Compound 55, cis-4-((5-(Imidazo[1,2-a]pyridin-6-yl)-4-methoxypyrrolo[2,1-f][1,2,4]triazin-2-yl)amino)-1-methylcyclohexan-1-ol] | 6.7 nM
2 | COc1nc(N[C@@H]2CCN(C)CC2(F)F)nn2ccc(-c3ccc4nnn(CC(F)F)c4c3)c12 [Compound 777, (R)—N-(3,3-Difluoro-1-methylpiperidin-4-yl)-5-(1-(2,2-difluoroethyl)-1H-benzo[d][1,2,3]triazol-6-yl)-4-methoxypyrrolo[2,1-f][1,2,4]triazin-2-amine] | 1.6 nM
3 | COc1nc(N[C@H]2CC[C@](C)(O)CC2)nn2ccc(-c3cc(F)c4nc(C)n(C(C)C)c4c3)c12 [Compound 168, trans-4-((5-(4-Fluoro-1-isopropyl-2-methyl-1H-benzo[d]imidazol-6-yl)-4-methoxypyrrolo[2,1-f][1,2,4]triazin-2-yl)amino)-1-methylcyclohexan-1-ol] | 2.7 nM
4 | COc1nc(NC2CC3(COC3)C2)nn2ccc(-c3ccc4nccn4c3)c12 [Compound 74, 5-(Imidazo[1,2-a]pyridin-6-yl)-4-methoxy-N-(2-oxaspiro[3.3]heptan-6-yl)pyrrolo[2,1-f][1,2,4]triazin-2-amine] | 5.2 nM
5 | COc1nc(N[C@@H]2CCN(C)C[C@@H]2F)nn2ccc(-c3ccc4nccn4c3)c12 [Compound 67, N-((3S,4R)-3-Fluoro-1-methylpiperidin-4-yl)-5-(imidazo[1,2-a]pyridin-6-yl)-4-methoxypyrrolo[2,1-f][1,2,4]triazin-2-amine] | 5.6 nM
6 | COc1nc(N[C@H]2CCN(C3CCC3)CC2(F)F)nn2ccc(-c3ccc4nc(C)n(CC(F)F)c4c3)c12 [Compound 141, (S)—N-(1-Cyclobutyl-3,3-difluoropiperidin-4-yl)-5-(1-(2,2-difluoroethyl)-2-methyl-1H-benzo[d]imidazol-6-yl)-4-methoxypyrrolo[2,1-f][1,2,4]triazin-2-amine] | 21.8 nM
7 | COc1nc(N[C@H]2CC[C@@]3(CCO3)CC2)nn2ccc(-c3cnc4nccn4c3)c12 [Compound 275, 5-(Imidazo[1,2-a]pyrimidin-6-yl)-4-methoxy-N-((4r,7r)-1-oxaspiro[3.5]nonan-7-yl)pyrrolo[2,1-f][1,2,4]triazin-2-amine] | 3.4 nM
8 | COc1nc(NC2CC3(C2)CN(C(=O)OC(C)(C)C)C3)nn2ccc(-c3ccn4nccc4c3)c12 [Compound 92, tert-Butyl 6-((4-methoxy-5-(pyrazolo[1,5-a]pyridin-5-yl)pyrrolo[2,1-f][1,2,4]triazin-2-yl)amino)-2-azaspiro[3.3]heptane-2-carboxylate] | 62.6 nM
9 | c1cnc2cc(-c3ccn4nc(NC5CC6(CCOCC6)C5)nc(OC5COC5)c34)ccc2n1 [Compound 1137, 4-(Oxetan-3-yloxy)-5-(quinoxalin-6-yl)-N-(7-oxaspiro[3.5]nonan-2-yl)pyrrolo[2,1-f][1,2,4]triazin-2-amine] | 4.8 nM
10 | [2H]C([2H])([2H])Oc1nc(N[C@H]2CC[C@](C)(O)CC2)nn2ccc(-c3ccc4nccnc4c3)c12 [Compound 348, trans-4-((4-(Methoxy-d3)-5-(quinoxalin-6-yl)pyrrolo[2,1-f][1,2,4]triazin-2-yl)amino)-1-methylcyclohexan-1-ol] | 2.3 nM
11 | COc1nc(NC2CCC3(CC2)CN(C(C)=O)C3)nn2ccc(-c3ccc4nnn(C)c4c3)c12 [Compound 229, 1-(7-((4-Methoxy-5-(1-methyl-1H-benzo[d][1,2,3]triazol-6-yl)pyrrolo[2,1-f][1,2,4]triazin-2-yl)amino)-2-azaspiro[3.5]nonan-2-yl)ethan-1-one] | 1.9 nM
12 | C[C@]1(O)CC[C@H](Nc2nc(OCC(F)F)c3c(-c4ccc5ncnn5c4)ccn3n2)CC1 [Compound 616, (1r,4r)-4-((5-([1,2,4]Triazolo[1,5-a]pyridin-6-yl)-4-(2,2-difluoroethoxy)pyrrolo [2,1-f][1,2,4]triazin-2-yl)amino)-1-methylcyclohexan-1-ol] | 2.9 nM
13 | COc1nc(N[C@H]2C[C@@H](OCCO)C2)nn2ccc(-c3ccn4nccc4c3)c12 [Compound 6, 2-(cis-3-((4-Methoxy-5-(pyrazolo[1,5-a]pyridin-5-yl)pyrrolo[2,1-f][1,2,4]triazin-2-yl)amino)cyclobutoxy)ethan-1-ol] | 1.1 nM
14 | CCC(=O)N1CC[C@H](Nc2nc(OC)c3c(-c4ccc5nnn(CC(F)F)c5c4)ccn3n2)[C@H](F)C1 [Compound 773, 1-((3R,4S)-4-((5-(1-(2,2-Difluoroethyl)-1H-benzo[d][1,2,3]triazol-6-yl)-4-methoxypyrrolo[2,1-f][1,2,4]triazin-2-yl)amino)-3-fluoropiperidin-1-yl)propan-1-one] | 0.7 nM
15 | COc1nc(N[C@H]2C[C@@](C)(O)C2)nn2ccc(-c3ccc4nc(C)n(CCO)c4c3)c12 [Compound 169, cis-3-((5-(1-(2-Hydroxyethyl)-2-methyl-1H-benzo[d]imidazol-6-yl)-4-methoxypyrrolo[2,1-f][1,2,4]triazin-2-yl)amino)-1-methylcyclobutan-1-ol] | 2.1 nM
16 | COc1nc(N[C@H]2C[C@@](C)(NC(C)=O)C2)nn2ccc(-c3cc(F)c4nnn(CC(F)F)c4c3)c12 [Compound 805, N-((1s,3s)-3-((5-(1-(2,2-Difluoroethyl)-4-fluoro-1H-benzo[d][1,2,3]triazol-6-yl)-4-methoxypyrrolo[2,1-f][1,2,4]triazin-2-yl)amino)-1-methylcyclobutyl)acetamide] | 1.6 nM
17 | COc1nc(N[C@@H]2CCN(C(C)=O)CC2(F)F)nn2ccc(-c3ccc4ncn(CC(F)F)c4c3)c12 [Compound 1140, (R)-1-(4-((5-(1-(2,2-Difluoroethyl)-1H-benzo[d]imidazol-6-yl)-4-methoxypyrrolo[2,1-f][1,2,4]triazin-2-yl)amino)-3,3-difluoropiperidin-1-yl)ethan-1-one] | 1.3 nM
18 | COc1nc(N[C@H]2C[C@H](C(C)(C)O)C2)nn2ccc(-c3ccc4nccnc4c3)c12 [Compound 328, 2-(trans-3-((4-Methoxy-5-(quinoxalin-6-yl)pyrrolo[2,1-f][1,2,4]triazin-2-yl)amino)cyclobutyl)propan-2-ol] | 5.4 nM
19 | COc1nc(N[C@H]2CC[C@](C)(O)CC2)nn2cc(F)c(-c3ccc4ncccc4c3)c12 [Compound 1056, trans-4-((6-Fluoro-4-methoxy-5-(quinolin-6-yl)pyrrolo[2,1-f][1,2,4]triazin-2-yl)amino)-1-methylcyclohexan-1-ol] | 1.1 nM
20 | COc1nc(NC2CCCCC2)nn2ccc(-c3cnc4nccn4c3)c12 [Compound 944, N-Cyclohexyl-5-(imidazo[1,2-a]pyrimidin-6-yl)-4-methoxypyrrolo[2,1-f][1,2,4]triazin-2-amine] | 1.5 nM
21 | COc1nc(N[C@H]2CC[C@](C)(O)CC2)nn2ccc(-c3cc4ncccc4[nH]3)c12 [Compound 280, trans-4-((4-Methoxy-5-(1H-pyrrolo[3,2-b]pyridin-2-yl)pyrrolo[2,1-f][1,2,4]triazin-2-yl)amino)-1-methylcyclohexan-1-ol] | 33.4 nM
22 | COc1nc(N[C@H]2CCN(CC(C)(C)O)C[C@H]2F)nn2ccc(-c3ccc4ncccc4c3)c12 [Compound 1045, 1-((3R,4S)-3-Fluoro-4-((4-methoxy-5-(quinolin-6-yl)pyrrolo[2,1-f][1,2,4]triazin-2-yl)amino)piperidin-1-yl)-2-methylpropan-2-ol] | 4.5 nM
23 | COc1nc(N[C@H]2CC[C@](C)(O)CC2)nn2ccc(-c3ccc4nc(C)n(CCO)c4c3)c12 [Compound 172, trans-4-((5-(1-(2-Hydroxyethyl)-2-methyl-1H-benzo[d]imidazol-6-yl)-4-methoxypyrrolo[2,1-f][1,2,4]triazin-2-yl)amino)-1-methylcyclohexan-1-ol] | 2.5 nM
24 | COc1nc(N[C@H]2CCN(C)C[C@H]2F)nn2cc(F)c(-c3ccc4nnn(C)c4c3)c12 [Compound 630, 6-Fluoro-N-((3R,4S)-3-fluoro-1-methylpiperidin-4-yl)-4-methoxy-5-(1-methyl-1H-benzo[d][1,2,3]triazol-6-yl)pyrrolo[2,1-f][1,2,4]triazin-2-amine] | 4.9 nM
25 | COc1nc(N[C@@H]2CN(C)C[C@@H]2F)nn2ccc(-c3cnc4nccn4c3)c12 [Compound 262, N-((3R,4S)-4-Fluoro-1-methylpyrrolidin-3-yl)-5-(imidazo[1,2-a]pyrimidin-6-yl)-4-methoxypyrrolo[2,1-f][1,2,4]triazin-2-amine] | 3.2 nM
26 | CNC(=O)[C@]1(C)C[C@@H](Nc2nc(OC)c3c(-c4ccc5nccnc5c4)ccn3n2)C1 [Compound 338, trans-3-((4-Methoxy-5-(quinoxalin-6-yl)pyrrolo[2,1-f][1,2,4]triazin-2-yl)amino)-N,1-dimethylcyclobutane-1-carboxamide] | 1.2 nM
27 | COc1nc(N[C@H]2CCN(C3COC3)C[C@H]2F)nn2ccc(-c3cc(F)c4nnn(CC(F)F)c4c3)c12 [Compound 818, 5-(1-(2,2-Difluoroethyl)-4-fluoro-1H-benzo[d][1,2,3]triazol-6-yl)-N-((3R,4S)-3-fluoro-1-(oxetan-3-yl)piperidin-4-yl)-4-methoxypyrrolo[2,1-f][1,2,4]triazin-2-amine] | 0.8 nM
28 | COc1nc(N[C@@H]2CCN(C3COC3)CC2(F)F)nn2ccc(-c3ccc4ncccc4c3)c12 [Compound 321, (R)—N-(3,3-Difluoro-1-(oxetan-3-yl)piperidin-4-yl)-4-methoxy-5-(quinolin-6-yl)pyrrolo[2,1-f][1,2,4]triazin-2-amine] | 2.1 nM
29 | COc1nc(NC2CCN(CC(F)F)CC2)nn2ccc(-c3ccc4nccn4c3)c12 [Compound 61, N-(1-(2,2-Difluoroethyl)piperidin-4-yl)-5-(imidazo[1,2-a]pyridin-6-yl)-4-methoxypyrrolo[2,1-f][1,2,4]triazin-2-amine] | 4.9 nM
